Measurements taken from a melting point compilation (Tetko et al.).

SMILES | melting point [°C]
O=C(O)C(F)(F)c1ccc(Cl)c(Cl)c1 | 109 to 111
Cc1c(C(=O)O)cc(Cl)cc1S(=O)(=O)Cl | 109 to 111
O=C(O)c1ccc(Cl)c(S(=O)(=O)Cl)c1 | 142 to 145
CC1CCC(C(C)C)C(OC(=O)CO)C1 (centres undefined) | 85 to 87
CNC(=O)c1cc(NC)ccn1 | 114 to 116
O=C(O)CCCc1ccc(O)cc1 | 106 to 108
CN(C)C(=O)Nc1ccc(C(=O)O)c(Cl)c1 | 191 to 193
CN(C)C(=O)Cc1ccccc1N | 69 to 71
COC(=O)C1CC(OC)=CC1=O (centres undefined) | 47 to 49
Nc1ccccc1CC(=O)O | 119 to 121
Nc1nc(-c2sccc2Br)cs1 | 151 to 153
CC(C)(N)c1noc(C(N)=O)n1 | 168 to 170
Cc1cccc(C)c1OCCC(=O)O | 51 to 53
Cc1sc2nc(-c3cccnc3)nc(Cl)c2c1-c1ccccc1 | 144 to 146
O=Cc1c(O)ccc([N+](=O)[O-])c1Cl | 118 to 120
ClCc1cnoc1-c1ccc(Cl)cc1 | 78 to 80
O=C(O)c1c[nH]c2ccc(Br)cc12 | 238 to 240
COCCCS(N)(=O)=O | 41 to 43
NCc1cc(C(N)=O)no1 | 149 to 151
CCn1cc(S(=O)(=O)Cl)c([N+](=O)[O-])n1 | 45 to 47
Cc1ccc(NC(=O)CCl)cc1S(=O)(=O)N(C)C | 74 to 76

SMILES | melting point [°C]
CCCn1c(C)cc(C=O)c1C | 52 to 54
CNc1scnc1C(=O)O | 99 to 101
Cc1noc(C)c1S(=O)(=O)NC(C)C(=O)O (centres undefined) | 135 to 137
Cc1cc(O)nc(CCl)n1 | 147 to 149
CC(O)c1ccc(I)cc1 (centres undefined) | 43 to 45
COc1ccc(C(C)(C)C(=O)O)cc1OC | 84 to 86
N#Cc1c(F)cccc1Sc1ccccc1 | 108 to 110
Cc1oc(-c2ccc(Cl)cc2)nc1C(=O)O | 235 to 237
O=C(O)c1cccc2c1CCCN2 | 142 to 144
ClCc1nc(-c2nc[nH]n2)no1 | 187 to 189
N#CCc1cnn(-c2ccccc2)c1 | 38 to 40
O=C(O)c1cc(-c2cccnc2)nc2nc(N3CCCC3)sc12 | 329 to 331
Cc1cccnc1NC(=O)C1CCCNC1 (centres undefined) | 123 to 125
CCN(Cc1ccccc1)S(N)(=O)=O | 79 to 81
COCCn1c(C)cc(C(=O)CCl)c1C | 87 to 91
Cc1cc(Cl)n2ncnc2c1 | 93 to 95
NC(C(=O)O)c1ccccc1F (centres undefined) | 229 to 231
c1cc(NC2CCCCCC2)c2cccnc2c1 | 100 to 102
O=C(CCN1CCOCC1)c1cc2ccccc2o1 | 53 to 55
O=C(NC1CCN(C(=O)CCl)CC1)c1ccccc1 | 155 to 157
COc1cccc(NC(=O)OCC(F)(F)F)c1 | 58 to 60

SMILES | melting point [°C]
N#Cc1cccc(COc2ccc(N)cc2Cl)c1 | 112 to 114
NS(=O)(=O)c1ccc(C(=O)O)cn1 | 219 to 221
CC1(C)Cc2cccc(OCC(=O)O)c2O1 | 111 to 113
O=C(O)C1(c2ccc(F)cc2F)CCC1 | 64 to 66
Nc1cc(S(=O)(=O)NC2CC2)c(Cl)cc1F | 120 to 122
O=C1CSCc2c(F)cccc21 | 59 to 61
Cc1nc(C(=O)O)c[nH]1 | 239 to 241
O=Cc1cc(Br)c2c(c1)OCCO2 | 99 to 101
O=C(O)CCNC(=O)c1ccc2[nH]nnc2c1 | 229 to 231
COc1cc(OC)cc(C(=O)NCC(=O)O)c1 | 91 to 93
CN1CCc2nc(N)c(C#N)cc2C1 | 215 to 217
CCNc1ncc(C(=O)OC)s1 | 136 to 138
O=C(O)c1cc(S)ccc1[N+](=O)[O-] | 234 to 236
CN(CC(=O)O)c1ncnc2nc[nH]c12 | 237 to 239
COc1cc(C)ccc1Oc1ccc(N)cn1 | 106 to 108
COc1ccc(C(=O)Oc2ccc(C=O)cc2OC)cc1 | 95 to 98
NC(Cc1cccs1)=NO | 79 to 82
CC(C)COc1ccc(C2(C(=O)O)CCC2)cc1 | 105 to 107
O=S(=O)(Cl)CCS(=O)(=O)c1ccccc1 | 172 to 174
O=C(O)c1cc(-c2ccncc2)nc2ccc(Br)cc12 | 340 to 342
CC(C)(C)OC(=O)c1ccc(C#N)cc1 | 74 to 76

SMILES | melting point [°C]
C#CCNC(=O)Nc1cc(C)on1 | 163 to 165
Cc1c(S(=O)(=O)Cl)oc2ccc(F)cc12 | 81 to 83
BrCCCOc1ccc2c(c1)OCO2 | 60 to 62
O=C(O)c1ccncc1N1CCOCC1 | 201 to 203
CC(C)Cn1cnc2c1c(=O)[nH]c(=O)n2Cc1ccccc1 | 179 to 181
Cc1ccc2[nH]cc(CCC(=O)O)c2c1 | 126 to 128
O=C(O)CNC(=O)c1ccc(F)cc1F | 139 to 141
O=C(O)c1cc(NCc2ccccc2)ccn1 | 274 to 276
ClCc1cc2c(cc1Cl)OCCCO2 | 55 to 57
COC(=O)c1ccc(C)c(NC(=O)CCl)c1 | 135 to 137
O=C(O)c1cc(-c2ccccn2)ccc1Cl | 215 to 217
Cc1nc2c(F)cccc2c(Cl)c1C(C)C | 47 to 49
Cc1cc(S(=O)(=O)Cl)sc1C(=O)O | 194 to 196
O=C(Nc1ccccn1)C1CCNCC1 | 113 to 115
Nc1nc(-c2ccc([N+](=O)[O-])cc2)n[nH]1 | 278 to 280
COc1ccc(NC(=O)NCCC(=O)O)cc1 | 174 to 176
Cc1cc(C(C)(C)C)cc(C)c1CC#N | 84 to 86
COc1ccc(S(=O)(=O)N(C)C)cc1NC(=O)CCl | 152 to 154
Nc1cc(F)ccc1Sc1ncn[nH]1 | 180 to 182
Cc1c(C(=O)O)cnn1-c1cccc(C(F)(F)F)c1 | 122 to 124
NCC(O)c1cccc(F)c1 (centres undefined) | 42 to 44

The remaining lines, values ahead:

melting point [°C] | SMILES
197 to 199 | CS(=O)(=O)N1CCC(NC(=O)N2CCC(C(=O)O)CC2)CC1
91 to 93 | CC(C)(CCC(=O)O)NC(=O)OC(C)(C)C
178 to 180 | NC(=S)NC1CCOc2ccccc21 (centres undefined)
124 to 126 | Cc1ccc(S(=O)(=O)NC(C)(C)C)cc1N
66 to 68 | O=Cc1ccc(-c2ccccc2F)o1
126 to 128 | COC(C)c1nc(C)c(C(=O)O)s1 (centres undefined)
235 to 237 | O=C(c1ccsc1)N1CCNCC1
169 to 171 | N#Cc1ccc(NC(=O)NC(CCC(=O)O)C(=O)O)cc1 (centres undefined)
79 to 81 | O=C(c1ccc(Br)cc1)N1CCNCC1
67 to 69 | Nc1cccc(NC(=O)CN2CCCCCC2)c1
75 to 77 | COc1cc(F)cc(F)c1S(=O)(=O)Cl
178 to 180 | O=C(O)CSc1csc(-c2ccc(Br)cc2)n1
101 to 103 | CSCCC(NC(=O)Cc1ccccc1)C(=O)O (centres undefined)
178 to 180 | CC(C)c1noc2nc(C3CC3)cc(C(=O)O)c12
162 to 164 | O=C(O)c1ccc([N+](=O)[O-])[nH]1
96 to 98 | CC(O)c1nc2ccccc2n1C(F)F (centres undefined)
89 to 91 | N#Cc1cccc(NC(=O)CC2CC2)c1
127 to 129 | O=Cc1ccc(-n2cncn2)c(F)c1
182 to 184 | O=S(=O)(CCN1CCCC(O)C1)c1ccc(Br)cc1 (centres undefined)
205 to 207 | CN(C)c1nc2sc(C(=O)O)cc2s1

melting point [°C] | SMILES
94 to 96 | CC(=O)NCCc1ccc(C(C)=O)cc1
194 to 196 | COC(=O)c1cc(N)cc(S(C)(=O)=O)c1
107 to 109 | CC(C)COc1ccc(C(C)(C)C(=O)O)cc1
225 to 227 | CS(=O)(=O)c1ccccc1-n1cc(C(=O)O)cn1
168 to 170 | Fc1ccc(CNc2nnc(S)s2)cc1
205 to 207 | CCOC(=O)Nc1nnc(S)s1
226 to 228 | NC(=O)CNS(=O)(=O)c1ccc(Br)c(C(=O)O)c1
163 to 165 | COc1coc(CO)cc1=O
160 to 162 | O=C(O)c1cc2ccc(OC(F)(F)F)cc2[nH]1
152 to 154 | Nc1cccc(N2CCOC2=O)c1
65 to 67 | CNCC1CCN(c2ccncc2)CC1
187 to 189 | O=C(CCl)ONc1nc2ccccc2[nH]c1=O
156 to 158 | Cc1cccc(-n2nnnc2S)c1
259 to 261 | COCCNc1cc2nc[nH]c(=O)c2cc1[N+](=O)[O-]
236 to 238 | Cc1nc2s[nH]c(=O)c2c(C)c1C
167 to 169 | Nc1nc(-c2c[nH]c3ccccc23)cs1
82 to 84 | OCc1cnc2ccccc2c1
185 to 187 | O=C(O)c1cccc(N2NC(=O)C3CC=CCC3C2=O)c1 (centres undefined)
89 to 91 | CC(C)(C)OC(=O)CC(C)(C#N)C(=O)O (centres undefined)
190 to 192 | Cc1nc(-c2ccccc2)ccc1C(=O)O

melting point [°C] | SMILES
167 to 169 | O=C(O)c1ccc(Br)c(S(=O)(=O)N2CCOCC2)c1
206 to 208 | Cc1cccc(-c2nnc(N)[nH]2)n1
126 to 128 | COc1ccc(Cl)cc1-c1cc(N)[nH]n1
113 to 115 | NC(=O)c1cccc(CO)c1
124 to 126 | NC1CN(S(=O)(=O)c2ccc3c(c2)OCCO3)C1
88 to 90 | COc1cc(C(=O)NN)ccc1OCCC(C)C
177 to 179 | COc1ccc2c(CO)cc(=O)oc2c1
206 to 208 | Cn1c(CC(=O)NN)nc2ccccc21
97 to 99 | O=C(O)Cc1csc(-c2cccs2)n1
70 to 72 | CCCN1C(=O)CNc2ccccc21
98 to 100 | CC(C)OC(=O)N1CCC(C(=O)O)(C(F)(F)F)C1 (centres undefined)
92 to 94 | CC(Cl)C(=O)Nc1ccccc1C(F)(F)F (centres undefined)
108 to 110 | Cc1ccc(S(=O)(=O)CCC(=O)O)cc1
150 to 152 | Cc1[nH]ncc1CNc1ccc(O)cc1
135 to 137 | CCCc1ncc(C(=O)O)s1
82 to 84 | COC(=O)C(C)NC(=O)Cc1ccc(Cl)cc1 (centres undefined)
60 to 62 | N#Cc1ccccc1NCc1ccco1
173 to 175 | Nc1nc(-c2ccc3c(c2)CCO3)cs1
269 to 271 | NC(=O)c1cc(C(=O)O)nn1-c1ccccc1
164 to 166 | O=C1CC(C(=O)O)CCN1 (centres undefined)
